Assays:
Format in all cases: cell-based
[1] = system: A. actinomycetemcomitans; assay: Multi-species biofilm composition: absolute abundance of A. actinomycetemcomitans; settings: mean±SD n=3
Method: (§1) Biofilms are grown vertically on Calcium Deficient Hydroxyapatite (CAD-HA) disks (Hitemco Medical, Old Bethpage, USA) using the Amsterdam Active Adhesion model. Biofilms are allowed to establish during 24 h (37° C., 170 rpm) under micro-aerophilic conditions (6% O2, 7% CO2, 7% H2, 80% N2). After this 24 h, disks are rinsed 3 times a day for 3 minutes (RT, 250 rpm), for 3 consecutive days, by transferring the lid containing the disks to a new 24-well plate containing 2 mL/well of the appropriate substrate solution. As a negative control, PBS (pH 5.7) without substrate supplementation is used. After each rinsing step, disks are shortly dip-rinsed in a new 24-well plate containing fresh modified BHI medium (2 mL/well) to remove remaining substrate traces. Subsequently, the lid is transferred to another 24-well plate containing fresh modified BHI medium (2 mL/well), followed by incubation (micro-aerophilic, 37° C., 170 rpm) until the next rinsing step.
(§2) NADM, N-acetyl-D-glucosamine (“NADG”) and D-(+)-mannose are selected to determine their effects on multi-species biofilm composition. […] decrease in absolute numbers in at least four of the pathogenic bacterial species tested in the assay, compared to the control, the results of which are described in Table 1 below. Absolute abundances of bacterial species are shown as mean±SD (n=3) logarithmic values of the genome equivalents per millilitre (log(Geq/mL)).

[2] = system: F. nucleatum; assay: Multi-species biofilm composition: absolute abundance of F. nucleatum; settings: for Absolute abundance Fn (F. nucleatum): mean±SD n=3
Method: as §1, §2

[3] = system: S. sobrinus; assay: Multi-species biofilm composition: absolute abundance of S. sobrinus; settings: mean±SD n=3
Method: as §1, §2

[4] = system: A. viscosus; assay: Multi-species biofilm composition: absolute abundance of A. viscosus; settings: mean±SD n=3
Method: as §1, §2

[5] = system: S. mitis; assay: Multi-species biofilm composition: absolute abundance of S. mitis; settings: mean±SD n=3
Method: as §1, §2

[6] = system: S. oralis; assay: Multi-species biofilm composition: absolute abundance of S. oralis; settings: mean±SD n=3
Method: as §1, §2

[7] = system: S. sanguinis; assay: Multi-species biofilm composition: absolute abundance of S. sanguinis; settings: mean±SD n=3
Method: as §1, §2

[8] = system: V. parvula; assay: Multi-species biofilm composition: absolute abundance of V. parvula; settings: mean±SD n=3
Method: as §1
NADM, N-acetyl-D-glucosamine (“NADG”) and D-(+)-mannose are selected to determine their effects on multi-species biofilm composition. Repeated rinsing of the biofilms with the substrates at a concentration of 1M results in a significant decrease in absolute numbers in at least four of the pathogenic bacterial species tested in the assay, compared to the control, the results of which are described in Table 1 below. Absolute abundances of bacterial species are shown as mean±SD (n=3) logarithmic values of the genome equivalents per millilitre (log(Geq/mL)).

[9] = system: A. actinomycetemcomitans virulence genes; assay: Multi-species biofilm virulence gene expression, SYBR RT-qPCR: A. actinomycetemcomitans; settings: for Fold Change in virulence gene expression: aae / Fold Change in virulence gene expression: apaH / Fold Change in virulence gene expression: cdtB / Fold Change in virulence gene expression: emaA / Fold Change in virulence gene expression: flp / Fold Change in virulence gene expression: ltxA / Fold Change in virulence gene expression: omp29 / Fold Change in virulence gene expression: omp100 / Fold Change in virulence gene expression: orf859 / Fold Change in virulence gene expression: pgA / Fold Change in virulence gene expression: vapA / Fold Change in virulence gene expression: vppA: relative to control (=1), 2^-ΔΔCt, geometric mean n=3
Method: as §1
(§3) The expression of 33 virulence genes from 4 periodontal pathogens is analysed to evaluate the relative virulence of the substrate-treated biofilms. For all three substrates, virulence gene expression is determined relatively to the control, and these values are also compared between substrates when this is relevant (Tables 5a-5d).

[10] = system: P. gingivalis virulence genes; assay: Multi-species biofilm virulence gene expression, SYBR RT-qPCR: P. gingivalis; settings: relative to control, 2^-ΔΔCt, geometric mean n=3
Method: as §1, §3

[11] = system: F. nucleatum virulence genes; assay: Multi-species biofilm virulence gene expression, SYBR RT-qPCR: F. nucleatum; settings: for Fold Change in virulence gene expression: ABC transp. perm. / Fold Change in virulence gene expression: EF-G / Fold Change in virulence gene expression: but.-coA transf. / Fold Change in virulence gene expression: hemin receptor / Fold Change in virulence gene expression: hemolysin / Fold Change in virulence gene expression: ompA / Fold Change in virulence gene expression: transposase: relative to control (=1), 2^-ΔΔCt, geometric mean n=3
Method: as §1, §3

[12] = system: human oral keratinocytes (HOK-18A); assay: IL-8 levels in supernatants of keratinocyte cultures exposed to substrate-treated biofilms; settings: mean±SD n=3
Method: Cultures of immortalized human oral keratinocytes (HOK-18A) are grown. The relative inflammatory potential of the substrate-treated multi-species biofilms is evaluated by analyzing the expression of five inflammatory mediator genes in human oral keratinocytes (HOKs) exposed to the substrate-treated biofilms. […] The IL-8 levels in the cellular supernatant are determined as well. RNA is converted to cDNA and relative expression of inflammatory mediator genes is determined as described above with respect to the cellular housekeeping gene (3-actin.
Table 7: IL-8 levels detected in the supernatants of human oral keratinocytes (HOK-18A) cultures exposed to substrate-treated multi-species biofilms are shown as mean±SD (n=3) values (pg/mL). All substrates are dissolved in PBS at a concentration of 1 M (upper part) or 1% (w/v) (lower part). Values between 0 and 1 represent relative downregulation, values >1 represent relative upregulation. […] For such values, statistically significant differences between two experimental conditions are marked with ‘#1’ (vs. NADM), ‘#2’ (vs. NADG), ‘#3’ (vs. D-(+)-mannose) (P<0.05).

O=C[C@@H](O)[C@@H](O)[C@H](O)[C@H](O)CO [D-mannose, D-(+)-mannose]
Absolute abundance Aa (A. actinomycetemcomitans) ([1]; substrate 1%(w/v) in PBS): 9.02 ± 0.11 log(Geq/mL)
Absolute abundance Aa (A. actinomycetemcomitans) ([1]; substrate 1 M in PBS): 6.07 ± 0.47 log(Geq/mL)
Decrease in F. nucleatum vs control ([2]; substrate 1%(w/v)): 1.1 log(Geq/mL)
Absolute abundance Fn (F. nucleatum) ([2]; substrate 1%(w/v) in PBS): 8.66 ± 0.29 log(Geq/mL)
Absolute abundance Fn (F. nucleatum) ([2]; substrate 1 M in PBS): 6.59 ± 0.36 log(Geq/mL)
Absolute abundance S. sobrinus ([3]; substrate 1%(w/v) in PBS): 5.28 ± 0.44 log(Geq/mL)
Absolute abundance S. sobrinus ([3]; substrate 1 M in PBS): 5.44 ± 0.31 log(Geq/mL)
Absolute abundance Av (A. viscosus) ([4]; substrate 1%(w/v) in PBS): 8.00 ± 0.17 log(Geq/mL)
Absolute abundance Av (A. viscosus) ([4]; substrate 1 M in PBS): 6.40 ± 0.48 log(Geq/mL)
Absolute abundance S. mitis ([5]; substrate 1%(w/v) in PBS): 3.00 ± 0.49 log(Geq/mL)
Absolute abundance S. mitis ([5]; substrate 1 M in PBS): <LOD
Absolute abundance S. oralis ([6]; substrate 1%(w/v) in PBS): 6.27 ± 0.21 log(Geq/mL)
Absolute abundance S. oralis ([6]; substrate 1 M in PBS): 6.83 ± 0.09 log(Geq/mL)
Absolute abundance S. sang. (S. sanguinis) ([7]; substrate 1%(w/v) in PBS): 8.19 ± 0.11 log(Geq/mL)
Absolute abundance S. sang. (S. sanguinis) ([7]; substrate 1 M in PBS): 7.39 ± 0.89 log(Geq/mL)
Absolute abundance Vp (V. parvula) ([8]; substrate 1%(w/v) in PBS): 9.93 ± 0.20 log(Geq/mL)
Absolute abundance Vp (V. parvula) ([8]; substrate 1 M in PBS): 10.18 ± 0.09 log(Geq/mL)
Fold Change in virulence gene expression: aae ([9]; substrate 1% (w/v)): 1.06 fold
Fold Change in virulence gene expression: apaH ([9]; substrate 1% (w/v)): 0.72 fold
Fold Change in virulence gene expression: cdtB ([9]; substrate 1% (w/v)): 0.36 fold
Fold Change in virulence gene expression: emaA ([9]; substrate 1% (w/v)): 0.41 fold
Fold Change in virulence gene expression: flp ([9]; substrate 1% (w/v)): 1.26 fold
Fold Change in virulence gene expression: ltxA ([9]; substrate 1% (w/v)): 0.17 fold
Fold Change in virulence gene expression: omp29 ([9]; substrate 1% (w/v)): 0.65 fold
Fold Change in virulence gene expression: omp100 ([9]; substrate 1% (w/v)): 0.34 fold
Fold Change in virulence gene expression: orf859 ([9]; substrate 1% (w/v)): 1.46 fold
Fold Change in virulence gene expression: pgA ([9]; substrate 1% (w/v)): 0.55 fold
Fold Change in virulence gene expression: vapA ([9]; substrate 1% (w/v)): 0.39 fold
Fold Change in virulence gene expression: vppA ([9]; substrate 1% (w/v)): 0.53 fold
A. actinomycetemcomitans gene expression decrease: cdtB, emaA, ltxA, omp100 and vapA ([9]; substrate 1%(w/v)): 2.4- to 5.9 fold
Fold Change in virulence gene expression: aae ([9]; substrate 1M): 0.16 fold
Fold Change in virulence gene expression: apaH ([9]; substrate 1M): 0.12 fold
Fold Change in virulence gene expression: cdtB ([9]; substrate 1M): 0.13 fold
Fold Change in virulence gene expression: emaA ([9]; substrate 1M): 0.12 fold
Fold Change in virulence gene expression: flp ([9]; substrate 1M): 1.57 fold
Fold Change in virulence gene expression: ltxA ([9]; substrate 1M): 0.02 fold
Fold Change in virulence gene expression: omp29 ([9]; substrate 1M): 0.27 fold
Fold Change in virulence gene expression: omp100 ([9]; substrate 1M): 0.26 fold
Fold Change in virulence gene expression: orf859 ([9]; substrate 1M): 0.03 fold
Fold Change in virulence gene expression: pgA ([9]; substrate 1M): 5.70 fold
Fold Change in virulence gene expression: vapA ([9]; substrate 1M): 0.62 fold
Fold Change in virulence gene expression: vppA ([9]; substrate 1M): 0.58 fold
Fold Change in virulence gene expression: fimA ([10]; substrate 1%): 2.50 fold
Fold Change in virulence gene expression: kgp ([10]; substrate 1%): 3.07 fold
Fold Change in virulence gene expression: partC ([10]; substrate 1%): 0.60 fold
Fold Change in virulence gene expression: rgpA ([10]; substrate 1%): 1.85 fold
Fold Change in virulence gene expression: fimA ([10]; substrate 1M): 1.17 fold
Fold Change in virulence gene expression: kgp ([10]; substrate 1M): 0.44 fold
Fold Change in virulence gene expression: partC ([10]; substrate 1M): 0.09 fold
Fold Change in virulence gene expression: rgpA ([10]; substrate 1M): 0.18 fold
Fold Change in virulence gene expression: ABC transp. perm. ([11]; substrate 1%): 0.73 fold
Fold Change in virulence gene expression: EF-G ([11]; substrate 1%): 0.13 fold
Fold Change in virulence gene expression: but.-coA transf. ([11]; substrate 1%): 0.37 fold
Fold Change in virulence gene expression: hemin receptor ([11]; substrate 1%): 0.26 fold
Fold Change in virulence gene expression: hemolysin ([11]; substrate 1%): 0.89 fold
Fold Change in virulence gene expression: ompA ([11]; substrate 1%): 1.17 fold
Fold Change in virulence gene expression: transposase ([11]; substrate 1%): 1.38 fold
F. nucleatum butyrate acetoacetate CoA transferase gene, upregulation ([11]; substrate 1 M): 2.3 fold
F. nucleatum hemolysin gene, upregulation ([11]; substrate 1 M): 2.1 fold
Fold Change in virulence gene expression: ABC transp. perm. ([11]; substrate 1M): 2.65 fold
Fold Change in virulence gene expression: EF-G ([11]; substrate 1M): 1.36 fold
Fold Change in virulence gene expression: but.-coA transf. ([11]; substrate 1M): 2.27 fold
Fold Change in virulence gene expression: hemin receptor ([11]; substrate 1M): 3.82 fold
Fold Change in virulence gene expression: hemolysin ([11]; substrate 1M): 2.14 fold
Fold Change in virulence gene expression: ompA ([11]; substrate 1M): 1.36 fold
Fold Change in virulence gene expression: transposase ([11]; substrate 1M): 1.46 fold
IL-8 levels in supernatants of HOK-18A cultures ([12]; biofilm rinsed with substrate 1%(w/v)): 51.09 ± 13.89 pg/mL
IL-8 levels in supernatants of HOK-18A cultures ([12]; biofilm rinsed with substrate 1M): 0.06 ± 0.04 pg/mL
